Patent US20070293484A1, “Thiophene Heteroaryl Amines” (SUGEN, INC., priority 2004, published 2007)

Tests used:
GST-Flk1 = target: T1, GST-Flk1 (Mus musculus, UniProt P35918); assay: GST-FLK-1 bioassay (ELISA, tyrosine kinase activity on poly(glu,tyr)); type: biochemical
T1 construct: GST-Flk1cd purified from sf9 recombinant baculovirus transformation (SUGEN, Inc.); host or cells: Sf9 insect cells (recombinant baculovirus)
Description: The assays described herein are performed in an ELISA (Enzyme-Linked Immunosorbent Sandwich Assay) format (Voller, et al., 1980, “Enzyme-Linked Immunosorbent Assay,” Manual of Clinical Immunology, 2d ed., Rose and Friedman, Am. Soc. Of Microbiology, Washington, D.C., pp. 359-371). The general procedure is as follows: a compound is introduced to cells expressing the test kinase, either naturally or recombinantly, for a selected period of time after which, if the test kinase is a receptor, a ligand known to activate the receptor is added. The cells are lysed and the lysate is transferred to the wells of an ELISA plate previously coated with a specific antibody recognizing the substrate of the enzymatic phosphorylation reaction. Non-substrate components of the cell lysate are washed away and the amount of phosphorylation on the substrate is detected with an antibody specifically recognizing phosphotyrosine compared with control cells that were not contacted with a test compound.
This assay analyzes the tyrosine kinase activity of GST-Flk1 on poly(glu,tyr) peptides.
• 1. Corning 96-well ELISA plates (Corning Catalog No. 5805-96). • 2. poly(glu,tyr) 4:1, lyophilizate (Sigma Catalog #P0275). • 3. Preparation of poly(glu,tyr)(pEY) coated assay plates: Coat 2 ug/well of poly(glu,tyr)(pEY) in 100 μL PBS, hold at room temperature for 2 hours or at 4° C. overnight. Cover plates well to prevent evaporation. • 4. PBS Buffer: for 1 L, mix 0.2 g KH2PO4, 1.15 g Na2HPO4, 0.2 g KCl and 8 g NaCl in approx. 900 ml dH2O. When all reagents have dissolved, adjust the pH to 7.2 with HCl. Bring total volume to 1 L with dH2O. • 5. PBST Buffer: to 1 L of PBS Buffer, add 1.0 ml Tween-20. • 6. TBB—Blocking Buffer: for 1 L, mix 1.21 g TRIS, 8.77 g NaCl, 1 ml TWEEN-20 in approximately 900 ml dH2O. Adjust pH to 7.2 with HCl. Add 10 g BSA, stir to dissolve. Bring total volume to 1 L with dH2O. Filter to remove particulate matter. • 7. 1% BSA in PBS: To make a 1× working solution, add 10 g BSA to approx. 990 ml PBS buffer, stir to dissolve. Adjust total volume to 1 L with PBS buffer, filter to remove particulate matter. • 8. 50 mM Hepes pH 7.5. • 9. GST-Flk1cd purified from sf9 recombinant baculovirus transformation (SUGEN, Inc.). • 10. 4% DMSO in dH2O. • 11. 10 mMATP in dH2O. • 12. 40 mM MnCl2 • 13. Kinase Dilution Buffer (KDB): mix 10 ml Hepes (pH 7.5), 1 ml 5M NaCl, 40 μL 100 mM sodium orthovanadate and 0.4 ml of 5% BSA in dH2O with 88.56 ml dH2O. • 14. NUNC 96-well V bottom polypropylene plates, Applied Scientific Catalog #AS-72092 • 15. EDTA: mix 14.12 g ethylenediaminetetraacetic acid (EDTA) to approx. 70 ml dH2O. Add 10 N NaOH until EDTA dissolves. Adjust pH to 8.0. Adjust total volume to 100 ml with dH2O. • 16. 1^0 Antibody Dilution Buffer: mix 10 ml of 5% BSA in PBS buffer with 89.5 ml TBST. • 17. Anti-phosphotyrosine monoclonal antibody conjugated to horseradish peroxidase (PY99 HRP, Santa Cruz Biotech). • 18. 2,2′-Azinobis(3-ethylbenzthiazoline-6-sulfonic acid (ABTS, Moss, Cat. No. ABST). • 19. 10% SDS. Procedure: • 1. Coat Corning 96-well ELISA plates with 2 μg of polyEY peptide in sterile PBS as described in step 3 of Materials and Reagents. • 2. Remove unbound liquid from wells by inverting plate. Wash once with TBST. Pat the plate on a paper towel to remove excess liquid. • 3. Add 100 μl of 1% BSA in PBS to each well. Incubate, with shaking, for 1 hr. at room temperature. • 4. Repeat step 2. • 5. Soak wells with 50 mM HEPES (pH7.5) (150 μl/well). • 6. Dilute test compound with dH2O/4% DMSO to 4 times the desired final assay concentration in 96-well polypropylene plates. • 7. Add 25 μl diluted test compound to ELISA plate. In control wells, place 25 μl of dH2O/4% DMSO. • 8. Add 25 μl of 40 mM MnCl2 with 4×ATP (2 μM) to each well. • 9. Add 25 μl 0.5M EDTA to negative control wells. • 10. Dilute GST-Flk1 to 0.005 μg (5 ng)/well with KDB. • 11. Add 50 μl of diluted enzyme to each well. • 12. Incubate, with shaking, for 15 minutes at room temperature. • 13. […]

PDGFR = target: T2, PDGFR (Homo sapiens, UniProt P09619); assay: PDGFR bioassay (ELISA, in vitro kinase activity); type: biochemical; settings: PDGFR-β expressing NIH 3T3 cell lysate; read-out: IC50 (μM) PDGF-R
T2 construct: SUGEN, Inc; host or cells: NIH 3T3 cell lysate; receptor captured on plate with monoclonal anti-PDGFR antibody 28D4C10
T2 sequence (P09619 33-1106, species assumed): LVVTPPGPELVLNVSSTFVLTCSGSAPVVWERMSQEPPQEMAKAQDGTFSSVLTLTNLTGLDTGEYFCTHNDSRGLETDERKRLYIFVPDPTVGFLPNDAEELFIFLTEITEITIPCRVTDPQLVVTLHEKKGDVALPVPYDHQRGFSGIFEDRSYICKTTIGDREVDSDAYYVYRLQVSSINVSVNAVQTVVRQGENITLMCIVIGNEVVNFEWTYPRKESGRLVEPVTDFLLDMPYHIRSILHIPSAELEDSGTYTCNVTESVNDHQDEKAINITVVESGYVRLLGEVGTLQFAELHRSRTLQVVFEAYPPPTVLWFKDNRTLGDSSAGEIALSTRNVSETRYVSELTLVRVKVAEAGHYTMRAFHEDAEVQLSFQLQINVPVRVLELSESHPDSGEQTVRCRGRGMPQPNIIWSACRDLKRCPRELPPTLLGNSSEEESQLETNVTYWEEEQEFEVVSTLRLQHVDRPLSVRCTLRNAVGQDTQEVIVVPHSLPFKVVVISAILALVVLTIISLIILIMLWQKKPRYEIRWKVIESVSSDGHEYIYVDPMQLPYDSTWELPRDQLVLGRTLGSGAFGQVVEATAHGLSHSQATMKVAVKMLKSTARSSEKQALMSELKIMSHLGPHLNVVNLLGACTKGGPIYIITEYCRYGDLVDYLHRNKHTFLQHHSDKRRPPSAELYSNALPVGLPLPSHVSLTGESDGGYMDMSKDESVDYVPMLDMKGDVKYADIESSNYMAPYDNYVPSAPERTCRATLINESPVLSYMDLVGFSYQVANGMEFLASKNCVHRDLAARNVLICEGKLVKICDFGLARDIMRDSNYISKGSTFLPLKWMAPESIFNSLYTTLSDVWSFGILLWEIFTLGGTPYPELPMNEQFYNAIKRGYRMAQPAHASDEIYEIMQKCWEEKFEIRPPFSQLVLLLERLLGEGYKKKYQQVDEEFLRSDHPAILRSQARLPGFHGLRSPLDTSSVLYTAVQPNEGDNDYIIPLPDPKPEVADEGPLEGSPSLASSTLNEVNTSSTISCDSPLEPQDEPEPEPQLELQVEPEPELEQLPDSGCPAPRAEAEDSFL

T1 sequence (P35918 784-1345 limits assumed): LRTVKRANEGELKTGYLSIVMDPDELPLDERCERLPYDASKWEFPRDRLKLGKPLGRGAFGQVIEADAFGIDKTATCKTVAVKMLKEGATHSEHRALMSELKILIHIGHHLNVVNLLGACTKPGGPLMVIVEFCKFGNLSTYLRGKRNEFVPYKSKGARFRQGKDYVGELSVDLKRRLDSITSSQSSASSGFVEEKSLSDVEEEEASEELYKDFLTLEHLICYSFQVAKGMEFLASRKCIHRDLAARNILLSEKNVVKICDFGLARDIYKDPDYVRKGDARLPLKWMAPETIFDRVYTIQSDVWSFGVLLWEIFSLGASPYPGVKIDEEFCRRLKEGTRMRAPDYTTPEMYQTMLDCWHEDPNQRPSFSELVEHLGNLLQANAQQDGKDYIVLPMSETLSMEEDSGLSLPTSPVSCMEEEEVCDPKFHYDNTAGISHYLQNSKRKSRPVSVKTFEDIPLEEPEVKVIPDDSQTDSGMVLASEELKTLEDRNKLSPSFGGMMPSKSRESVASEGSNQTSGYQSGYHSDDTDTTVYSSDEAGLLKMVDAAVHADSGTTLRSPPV

| IC50 (GST-Flk1) [µM] | IC50 (PDGFR) [µM] | SMILES |
| --- | --- | --- |
| 2.3 | 0.22 | CN1CCN(CCNC(=O)Nc2cccc(Nc3ncc(-c4ccsc4)cn3)c2)CC1 [Example 53, 1-[2-(4-methyl-piperazin-1-yl)-ethyl]-3-[3-(5-thiophen-3-yl-pyrimidin-2-ylamino)-phenyl]-urea] |
| 3.1 | 0.23 | CCN(CC)CCNCC(=O)Nc1cccc(Nc2ncc(-c3ccsc3)cn2)c1 [Example 57, 2-(2-diethylamino-ethylamino)-N-[3-(5-thiophen-3-yl-pyrimidin-2-ylamino)-phenyl]-acetamide] |
| 4.55 | 0.66 | O=C(Nc1ccc(Nc2ncc(-c3ccsc3)cn2)cc1)N1CCCC1CN1CCCC1 (stereo not shown) [Example 33, 2-(pyrrolidin-1-ylmethyl)-N-{4-[(5-thien-3-ylpyrimidin-2-yl)amino]phenyl}pyrrolidine-1-carboxamide] |
| 2.3 | 0.18 | O=C(CN1CCCC1CN1CCCC1)Nc1cccc(Nc2ncc(-c3ccsc3)cn2)c1 (stereo not shown) [Example 47, N-(3-(5-(thiophen-3-yl)pyrimidin-2-ylamino)phenyl)-2-(2-((pyrrolidin-1-yl)methyl)pyrrolidin-1-yl)acetamide] |
| > 20 | 0.5 | Nc1ccc(C(=O)Nc2ccc(Nc3ncc(-c4ccsc4)cn3)cc2)cc1 [Example 4, 4-amino-N-{4-[(5-thien-3-ylpyrimidin-2-yl)amino]phenyl}benzamide] |
| 5.1 | 0.55 | CN1CCN(CC(=O)Nc2ccc(Nc3ncc(-c4ccsc4)cn3)cc2)CC1 [Example 23, 2-(4-methylpiperazin-1-yl)-N-{4-[(5-thien-3-ylpyrimidin-2-yl)amino]phenyl}acetamide] |
| 5.4 | 0.47 | CN1CCN(C(=O)Nc2ccc(Nc3ncc(-c4ccsc4)cn3)cc2)CC1 [Example 35, 4-methyl-N-{4-[(5-thien-3-ylpyrimidin-2-yl)amino]phenyl}piperazine-1-carboxamide] |
| 3.5 | 0.21 | O=C(Nc1cccc(Nc2ncc(-c3ccsc3)cn2)c1)N1CCCC1CN1CCCC1 (stereo not shown) [Example 48] |
| 2.7 | 0.09 | O=C(CNCC(O)CN1CCOCC1)Nc1cccc(Nc2ncc(-c3ccsc3)cn2)c1 (stereo not shown) [Example 59, 2-(2-hydroxy-3-morpholin-4-yl-propylamino)-N-[3-(5-thiophen-3-yl-pyrimidin-2-ylamino)-phenyl]-acetamide] |
| 2.7 | 0.19 | O=C(CN1CCC(N2CCCC2)CC1)Nc1cccc(Nc2ncc(-c3ccsc3)cn2)c1 [Example 55, 2-(4-pyrrolidin-1-yl-piperidine-1-yl)-N-[3-(5-thiophen-3-yl-pyrimidin-2-ylamino)-phenyl]-acetamide] |
| 5.7 | 0.53 | CCN(CC)CCNC(=O)Nc1ccc(Nc2ncc(-c3ccsc3)cn2)cc1 [Example 32, N-[2-(diethylamino)ethyl]-N′-{4-[(5-thien-3-ylpyrimidin-2-yl)amino]phenyl}urea] |
| 1.7 | 0.16 | CCN(CC)CCNC(=O)Nc1cccc(Nc2ncc(-c3ccsc3)cn2)c1 [Example 50] |
| 2 | 0.15 | c1cc(Nc2ncc(-c3ccsc3)cn2)cc(N2CCOCC2)c1 [Example 39, N-(3-morpholin-4-ylphenyl)-5-thien-3-ylpyrimidin-2-amine] |
| 2.52 | 0.26 | CN1CCN(Cc2ccc(C(=O)Nc3ccc(Nc4ncc(-c5ccsc5)cn4)cc3)cc2)CC1 [Example 12, 4-[(4-methylpiperazin-1-yl)methyl]-N-{4-[(5-thien-3-ylpyrimidin-2-yl)amino]phenyl}benzamide] |
| 1.9 | 0.14 | O=C(NCCN1CCOCC1)Nc1cccc(Nc2ncc(-c3ccsc3)cn2)c1 [Example 49] |
| 4 | 0.43 | O=C(CN1CCCC1)Nc1ccc(Nc2ncc(-c3ccsc3)cn2)cc1 [Example 29, 2-pyrrolidin-1-yl-N-{4-[(5-thien-3-ylpyrimidin-2-yl)amino]phenyl}acetamide] |
| 3.7 | 0.56 | CC(C)Nc1cccc(Nc2ncc(-c3ccsc3)cn2)c1 [Example 37, N-isopropyl-N′-(5-thien-3-ylpyrimidin-2-yl)benzene-1,3-diamine] |
| 3 | 1.8 | CCN(CC)c1cccc(Nc2ncc(-c3ccsc3)cn2)c1 [Example 38, N,N-diethyl-N′-(5-thien-3-ylpyrimidin-2-yl)benzene-1,3-diamine] |
| > 20 | > 20 | O=C(CN1CCOCC1)Nc1cccc(Nc2cnc(-c3ccsc3)cn2)c1 [Example 42, 2-morpholin-4-yl-N-{3-[(5-thien-3-ylpyrazin-2-yl)amino]phenyl}acetamide] |
| > 20 | 0.99 | Nc1ccc(C(=O)Nc2ccc(Nc3ncc(-c4cccs4)cn3)cc2)cc1 [Example 16, 4-amino-N-{4-[(5-thien-2-ylpyrimidin-2-yl)amino]phenyl}benzamide] |
| 1.6 | 0.36 | O=C(NCCN1CCS(=O)(=O)CC1)Nc1cccc(Nc2ncc(-c3ccsc3)cn2)c1 [Example 52, 1-[2-(1,1-dioxo-1λ^6-thiomorpholin-4-yl)ethyl]-3-[3-(5-thiophen-3-yl-pyrimidin-2-ylamino)-phenyl]-urea] |
| 2.3 | 0.18 | O=C(Nc1cccc(Nc2ncc(-c3ccsc3)cn2)c1)N1CCC(N2CCCC2)CC1 [Example 54, 4-pyrrolidin-1-yl-piperidine-1-carboxylic acid [3-(5-thiophen-3-yl-pyrimidin-2-ylamino)-phenyl]-amide] |
| 3.74 | 0.07 | CC(=O)Nc1ccc(Nc2ncc(-c3ccsc3)cn2)cc1 [Example 2, N-{4-[(5-thien-3-ylpyrimidin-2-yl)amino]phenyl}acetamide] |
| > 20 | > 20 | Nc1cccc(Nc2ncc(-c3csc4ccccc34)cn2)c1 [Example 20, N-[5-(1-benzothien-3-yl)pyrimidin-2-yl]benzene-1,3-diamine] |
| 8.6 | 2.4 | CC(=O)c1ccc(-c2cnc(Nc3cccc(N)c3)nc2)s1 [Example 19, 1-(5-{2-[(3-aminophenyl)amino]pyrimidin-5-yl}thien-2-yl)ethanone] |
| 10 | 2.6 | Cc1ccc(Nc2ncc(-c3ccsc3)cn2)cc1NC(=O)c1ccc(CN2CCN(C)CC2)cc1 [Example 40, 4-(4-methyl-piperazin-1-ylmethyl)-N-[2-methyl-5-(5-thiophen-3-yl-pyrimidin-2-ylamino)-phenyl]-benzamide] |
